Drawing on PubChem BioAssay (NCI), this text covers TGI and GI50 for 13 compounds.

Among the test systems are EKVX NSCLC; HCC-2998 colon; LOX IMVI melanoma; M14 melanoma; NCI-H23 lung; OVCAR-4 ovarian; RPMI-8226 leukemia; SK-OV-3 ovarian; UACC-62 melanoma; KM12 colon.
Holding throughout (experiment): inhibition of tumour cell growth, NCI panel, 48 h

Structures are written as SMILES.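 Five compound concentrations were applied to cells in 96-well plates for 48 hours; endpoints were derived by simple linear interpolation of the resulting dose-response curve. GI50 = concentration required for 50% inhibition of growth. TGI is the concentration that stops growth completely.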 Bounds are passed on as bounds.

Take `OCC(O)C(O)C(O)c1nn(-c2ccc(Cl)cc2)c2nc3cc(Cl)c(Cl)cc3nc12` (stereo not drawn): the TGI with EKVX NSCLC is 67.9 µM; in the assay with HCC-2998 colon, over 100 µM; in the assay with LOX IMVI melanoma, over 100 µM; in the assay with M14 melanoma, over 100 µM; in the assay with NCI-H23 lung, 85.1 µM; with OVCAR-4 ovarian it was over 100 µM. Further, the TGI in the assay with RPMI-8226 leukemia was over 100 µM; in the assay with SK-OV-3 ovarian it was 58.6 µM; with UACC-62 melanoma it was over 100 µM.

For the compound `Cc1ccc(S(=O)(=O)N2CCSCCN(S(=O)(=O)c3ccc(C)cc3)CCN(S(=O)(=O)c3ccc(C)cc3)CC2)cc1`, the TGI in the assay on EKVX NSCLC, in the assay with HCC-2998 colon, in the assay with M14 melanoma, in the assay on NCI-H23 lung, in the assay with OVCAR-4 ovarian and in the assay with RPMI-8226 leukemia was over 100 µM throughout. The values for the TGI with SK-OV-3 ovarian and in the assay on UACC-62 melanoma were 86.7 µM and over 100 µM, respectively.

On to `COC(=O)C(=O)C(C(=O)C(=O)Nc1nc2ccc(C)cc2s1)c1nc2ccc([N+](=O)[O-])cc2[nH]c1=O` (stereo not drawn), for which the TGI in the assay on EKVX NSCLC, in the assay on HCC-2998 colon, in the assay with KM12 colon, in the assay with LOX IMVI melanoma, with M14 melanoma and with NCI-H23 lung was over 100 µM in each case. Besides, the TGI with RPMI-8226 leukemia, in the assay with SK-OV-3 ovarian and in the assay with UACC-62 melanoma was over 100 µM each time.

For `CCc1c(Cc2[nH]c(Cc3[nH]c(C=O)c(C)c3CC)c(CC)c2CC)[nH]c(C=O)c1C`, the TGI in the assay on EKVX NSCLC was over 100 µM; with HCC-2998 colon, over 100 µM; in the assay with LOX IMVI melanoma, over 100 µM; in the assay on M14 melanoma, over 100 µM; in the assay on NCI-H23 lung, over 1 µM; with OVCAR-4 ovarian it was over 1 µM. Besides, the TGI in the assay with RPMI-8226 leukemia, in the assay with SK-OV-3 ovarian and in the assay on UACC-62 melanoma was over 100 µM throughout.

For the compound `Cc1ccc(NC(=O)C(=O)C(C#N)c2nc(-c3ccc(-c4ccccc4)cc3)cs2)c(C)c1` (stereo not drawn), the TGI in the assay with EKVX NSCLC is over 100 µM; with HCC-2998 colon, over 100 µM; with LOX IMVI melanoma, over 100 µM; with M14 melanoma, over 100 µM; in the assay on NCI-H23 lung, over 1 µM; with OVCAR-4 ovarian, over 100 µM. Further, the TGI in the assay with RPMI-8226 leukemia, with SK-OV-3 ovarian and with UACC-62 melanoma was over 100 µM in each case.

For `CNC(=O)OCc1c2ccncc2c(C)c2c1[nH]c1ccccc12`, the TGI in the assay on EKVX NSCLC is 2.24 µM; in the assay on HCC-2998 colon it was 1.08 µM; in the assay with KM12 colon, 5.19 µM; in the assay with LOX IMVI melanoma, 0.584 µM; with M14 melanoma, 2.95 µM; with NCI-H23 lung, 0.822 µM. The TGI in the assay with OVCAR-4 ovarian was 1.38 µM; with SK-OV-3 ovarian, 1.78 µM; in the assay on UACC-62 melanoma, 0.869 µM.

As for `NNC(=O)CNC(=O)c1ccc(Cl)cc1Cl`, the TGI in the assay on EKVX NSCLC, in the assay with HCC-2998 colon, in the assay with KM12 colon, with M14 melanoma, with NCI-H23 lung and in the assay on OVCAR-4 ovarian was over 100 µM throughout. Also, the TGI with RPMI-8226 leukemia, in the assay on SK-OV-3 ovarian and in the assay with UACC-62 melanoma was over 100 µM throughout.

Consider `CCN1C(=O)N(CC)C2Nn3c(s/c(=C\c4ccccc4Br)c3=O)=NC21` (stereo not drawn), for which the GI50 in the assay on EKVX NSCLC was 2.3 µM; in the assay on HCC-2998 colon it was 2.4 µM; in the assay with KM12 colon, 0.501 µM; with LOX IMVI melanoma, 2.43 µM; in the assay on NCI-H23 lung, 2.7 µM; in the assay with OVCAR-4 ovarian, 2.29 µM. Besides, the GI50 with RPMI-8226 leukemia was 1.79 µM; in the assay on SK-OV-3 ovarian it was 2.15 µM; in the assay with UACC-62 melanoma, 2.18 µM. In addition, the TGI with EKVX NSCLC was over 100 µM; with KM12 colon, 6.13 µM; in the assay on LOX IMVI melanoma, 30.6 µM; in the assay with NCI-H23 lung, over 100 µM; with OVCAR-4 ovarian, over 100 µM; with RPMI-8226 leukemia, 15.2 µM. In addition, the TGI with SK-OV-3 ovarian amounted to 7.7 µM; in the assay with UACC-62 melanoma it was 31.1 µM.

Take `COC(=O)/C=C(\C(=O)OC)c1c2c3c(cc(OC)c(OC)c3c3ccccc13)CCN2C`: the TGI in the assay with EKVX NSCLC, with HCC-2998 colon, in the assay with KM12 colon, in the assay with LOX IMVI melanoma, in the assay on M14 melanoma and in the assay with NCI-H23 lung was over 100 µM each time. Moreover, the TGI in the assay with RPMI-8226 leukemia, in the assay with SK-OV-3 ovarian and with UACC-62 melanoma was over 100 µM each time.

Consider `O=C1c2ccccc2C(=O)N1CCN(CCN1C(=O)c2ccccc2C1=O)Cn1cccn1`, for which the TGI in the assay with EKVX NSCLC, in the assay on HCC-2998 colon, in the assay on KM12 colon, in the assay with LOX IMVI melanoma, with M14 melanoma and in the assay with OVCAR-4 ovarian was over 100 µM each time. Besides, the TGI is 83.4 µM in the assay on RPMI-8226 leukemia, over 100 µM with SK-OV-3 ovarian and 63.2 µM with UACC-62 melanoma.

For `O=C1CCC2CC(C(=O)c3ccccc3)CCC2CN1` (stereo not drawn) (tested in a mixture with another compound), the TGI in the assay on EKVX NSCLC, with HCC-2998 colon, in the assay on KM12 colon, with M14 melanoma, in the assay on NCI-H23 lung and with OVCAR-4 ovarian was over 100 µM throughout. Also, the TGI in the assay on RPMI-8226 leukemia, in the assay with SK-OV-3 ovarian and in the assay with UACC-62 melanoma was over 100 µM throughout.

Consider `COc1ccc2cc(-c3cc4c(oc3=O)-c3ccccc3OC4O)c(=O)oc2c1` (stereo not drawn), for which the GI50 with EKVX NSCLC is 15.2 µM; with KM12 colon, 18.2 µM; in the assay with LOX IMVI melanoma, 15.9 µM; in the assay with M14 melanoma it was 22.1 µM; in the assay on NCI-H23 lung, 17.7 µM; with OVCAR-4 ovarian, 12.3 µM. In addition, the GI50 was 13.4 µM with RPMI-8226 leukemia, 17.1 µM with SK-OV-3 ovarian and 16.2 µM in the assay with UACC-62 melanoma. Also, the TGI in the assay on EKVX NSCLC was 32.8 µM; in the assay on KM12 colon it was 34.9 µM; in the assay on LOX IMVI melanoma, 31.2 µM; in the assay with M14 melanoma it was 43.8 µM; in the assay on NCI-H23 lung it was 33.4 µM; with OVCAR-4 ovarian, 28.9 µM. The TGI in the assay on RPMI-8226 leukemia came out at 58.7 µM; with SK-OV-3 ovarian it was 32.3 µM; in the assay with UACC-62 melanoma, 30.4 µM.

With `Cc1cccc2c1N(C(=O)/C=C\C(=O)O)C(c1c(C)[nH]c3ccccc13)C2` (stereo not drawn), the TGI with EKVX NSCLC was over 100 µM; with HCC-2998 colon, 33.9 µM; in the assay on KM12 colon, over 100 µM; in the assay with M14 melanoma it was over 100 µM; in the assay on NCI-H23 lung it was over 100 µM; in the assay with OVCAR-4 ovarian, over 100 µM. Further, the TGI is over 100 µM in the assay with RPMI-8226 leukemia, over 100 µM in the assay with SK-OV-3 ovarian and 41.8 µM with UACC-62 melanoma.
